Assays:
Assay in all cases: relative viability (nuclei count vs DMSO), 5 days (fraction); higher = more cells survive
Linifanib + Vorinostat = compound: Cc1ccc(F)c(NC(=O)Nc2ccc(-c3cccc4[nH]nc(N)c34)cc2)c1 [Linifanib] + O=C(CCCCCCC(=O)Nc1ccccc1)NO [Vorinostat] (partner 1 µM)
Summary of the method: (§1)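 Dosing by pin tool came one day after lung cancer cell lines were seeded in 1536-well plates, using either one drug or a fixed anchor-drug dose plus five library-drug doses (not always all listed) in √10 steps. After 5 days, nuclei were counted on 4× images. Relative viability is treated-well nuclei count divided by vehicle-well nuclei count, and values are medians of duplicate plates.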

Linifanib + Dasatinib = compound: Cc1ccc(F)c(NC(=O)Nc2ccc(-c3cccc4[nH]nc(N)c34)cc2)c1 [Linifanib] + Cc1nc(Nc2ncc(C(=O)Nc3c(C)cccc3Cl)s2)cc(N2CCN(CCO)CC2)n1 [Dasatinib] (partner 0.075 µM)
Summary of the method: as §1

Linifanib + Trametinib = compound: Cc1ccc(F)c(NC(=O)Nc2ccc(-c3cccc4[nH]nc(N)c34)cc2)c1 [Linifanib] + CC(=O)Nc1cccc(-n2c(=O)n(C3CC3)c(=O)c3c(Nc4ccc(I)cc4F)n(C)c(=O)c(C)c32)c1 [Trametinib] (partner 0.02 µM)
Summary of the method: as §1

Linifanib + Decitabine = compound: Cc1ccc(F)c(NC(=O)Nc2ccc(-c3cccc4[nH]nc(N)c34)cc2)c1 [Linifanib] + Nc1ncn([C@H]2C[C@H](O)[C@@H](CO)O2)c(=O)n1 [Decitabine] (partner 2 µM)
Summary of the method: as §1

Linifanib + Lapatinib = compound: Cc1ccc(F)c(NC(=O)Nc2ccc(-c3cccc4[nH]nc(N)c34)cc2)c1 [Linifanib] + CS(=O)(=O)CCNCc1ccc(-c2ccc3ncnc(Nc4ccc(OCc5cccc(F)c5)c(Cl)c4)c3c2)o1 [Lapatinib] (partner 2 µM)
Summary of the method: as §1

Linifanib + OSI-027 = compound: Cc1ccc(F)c(NC(=O)Nc2ccc(-c3cccc4[nH]nc(N)c34)cc2)c1 [Linifanib] + COc1cccc2cc(-c3nc([C@H]4CC[C@H](C(=O)O)CC4)n4ncnc(N)c34)[nH]c12 [OSI-027] (partner 0.5 µM)
Summary of the method: as §1

Cell Line	relative viability (Linifanib + Vorinostat; first compound 0.03162 µM)	relative viability (Linifanib + Vorinostat; first compound 0.1 µM)	relative viability (Linifanib + Vorinostat; first compound 0.3162 µM)	relative viability (Linifanib + Dasatinib; first compound 0.03162 µM)	relative viability (Linifanib + Dasatinib; first compound 0.1 µM)	relative viability (Linifanib + Dasatinib; first compound 0.3162 µM)	relative viability (Linifanib + Trametinib; first compound 0.03162 µM)	relative viability (Linifanib + Trametinib; first compound 0.1 µM)	relative viability (Linifanib + Trametinib; first compound 0.3162 µM)	relative viability (Linifanib + Decitabine; first compound 0.03162 µM)	relative viability (Linifanib + Decitabine; first compound 0.1 µM)	relative viability (Linifanib + Decitabine; first compound 0.3162 µM)	relative viability (Linifanib + Lapatinib; first compound 0.03162 µM)	relative viability (Linifanib + Lapatinib; first compound 0.1 µM)	relative viability (Linifanib + Lapatinib; first compound 0.3162 µM)	relative viability (Linifanib + OSI-027; first compound 0.03162 µM)	relative viability (Linifanib + OSI-027; first compound 0.1 µM)	relative viability (Linifanib + OSI-027; first compound 0.3162 µM)
NCI-H596	0.604	0.624	0.689	0.58	0.612	0.671	0.813	0.894	0.749	0.915	1.01	1.06	1.05	1.08	1.01	0.625	0.879	0.71
NCI-H647	0.638	0.672	0.516	0.194	0.231	0.183	0.567	0.526	0.588	0.339	0.368	0.481	1.22	1.29	1.01	0.703	0.795	0.587
NCI-H650	0.513	0.409	0.358	0.461	0.451	0.444	0.935	0.967	0.952	0.371	0.355	0.312	1.16	0.941	0.766	0.493	0.584	0.514
NCI-H661	0.792	0.751	0.75	1.07	0.983	0.871	0.577	0.591	0.55	0.559	0.626	0.582	0.483	0.449	0.42	0.726	0.714	0.647
NCI-H727	1.29	1.18	1.09	0.449	0.344	0.521	0.396	0.418	0.388	0.883	0.885	0.88	0.781	1.05	0.716	0.642	0.635	0.722
NCI-H838	0.724	0.711	0.686	0.286	0.282	0.27	0.528	0.554	0.521	0.521	0.472	0.443	1.01	1.11	0.933	0.393	0.429	0.397
NCI-H1355	0.647	0.68	0.682	0.76	0.859	0.697	0.407	0.497	0.404	0.352	0.387	0.338	1.04	0.934	1.01	0.418	0.497	0.434
NCI-H1395	0.824	0.71	0.633	0.3	0.394	0.405	0.943	0.882	0.933	0.725	0.753	0.698	0.986	0.982	1.14	0.611	0.756	0.573

Reference: the supplement of paper PMC10307832
